For the assay, the target named is human DGAT2 (hDGAT2) (Homo sapiens (Human), UniProt Q96PD7). Description: DGAT2 Enzymatic Activity Assay. The assay is classed as biochemical. The following applies: hDGAT2 Sf-9 membrane prep; 13C18-triolein product by LC/MS/MS; 25 μM diolein, 5 μM 13C oleoyl-CoA. On the procedure:
Sf-9 insect cells were maintained in Grace's insect cell culture medium with 10% heated-inactivated fetal bovine serum, 1% Pluronic F-68 and 0.14 μg/ml Kanamycine sulfate at 27° C. in a shaker incubator. After infection with untagged baculovirus expressing human DGAT2 (hDGAT2) at multiplicity of infection (MOI) 3 for 48 hours, cells were harvested. Cell pellets were suspended in buffer containing 10 mM Tris-HCl pH 7.5, 1 mM EDTA, 250 mM sucrose and Complete Protease Inhibitor Cocktail (Sigma Aldrich), and sonicated on ice. Cell debris were removed by centrifugation at 2000×g for 15 minutes. Membrane fractions were isolated by ultracentrifugation (100,000×g), resuspended in the same buffer, and frozen (−80° C.) for later use. The protein concentration was determined with the Pierce™ BCA Protein Assay Kit (Thermo Fisher Scientific).
LC/MS/MS analyses were performed using Thermal Fisher's LX4-TSQ Vantage system. This system consists of an Agilent binary high-performance liquid chromatography (HPLC) pump and a TSQ Vantage triple quadrupole MS/MS instrument. For each sample, 2 μL samples from the top organic layer of in-plate liquid-liquid extraction were injected onto a Thermo Betabasic C4 column (2.1 mm×20 mm, 5 μm particle size). The samples were then eluted using the following conditions; mobile phase: Isopropanol: acetonitrile/10 mM ammonium formate=50/35/15 (v/v/v), flow rate: 0.8 mL/min, temperature: 25° C. Data was acquired in positive mode using a heated electrospray ionization (HESI) interface. […] The peak area was integrated by Xcalibur Quan software. The ratio between the ^13C18triolein generated in the reaction and spiked in internal standard ^13C21-triolein was used to generate percentage inhibition and IC50 values. Compound percentage inhibition was calculated by the following formula: Inhibition %=1−[(compound response−low control)/(high control−low control)]×100%.
DGAT2 activity was determined by measuring the amount of enzymatic product ^13C18-triolein (^13C-1,2,3-Tri(cis-9-octadecenoyl)glycerol) using the membrane prep mentioned above. The assay was carried out in ABgene 384-well assay plates in a final volume of 25 μL at rt.
Sequence of human DGAT2 (hDGAT2) (Q96PD7 whole entry): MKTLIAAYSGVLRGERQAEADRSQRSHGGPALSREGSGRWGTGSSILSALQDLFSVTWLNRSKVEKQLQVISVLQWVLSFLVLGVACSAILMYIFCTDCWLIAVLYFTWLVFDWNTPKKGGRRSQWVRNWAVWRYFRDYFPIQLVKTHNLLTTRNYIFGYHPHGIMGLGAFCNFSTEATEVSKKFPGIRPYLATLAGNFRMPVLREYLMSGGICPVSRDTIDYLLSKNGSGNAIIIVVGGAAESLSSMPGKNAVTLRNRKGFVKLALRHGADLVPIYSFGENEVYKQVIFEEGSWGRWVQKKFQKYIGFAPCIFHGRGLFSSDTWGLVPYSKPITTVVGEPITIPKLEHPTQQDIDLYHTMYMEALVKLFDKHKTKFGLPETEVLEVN
A word on the IC50: it is the point on the concentration scale where inhibition reaches its midpoint. High values mean a need for much substance, low ones inhibition by little substance. For the compound `CC1(NC(=O)C2COc3c(-c4cccc(OC(F)F)c4)nn(-c4ccc(F)cn4)c3C2)CS(=O)(=O)C1` (racemic) [Example 119, 3-(3-(difluoromethoxy)phenyl)-1-(5-fluoropyridin-2-yl)-N-(3-methyl-1,1-dioxidothietan-3-yl)-1,5,6,7-tetrahydropyrano[3,2-c]pyrazole-6-carboxamide], inhibition was half-maximal at 0.00033 µM (IC50).

For `CC(C)n1nc(-c2cc(OC(F)F)ccc2F)c2c1CC(C(=O)NC1(C)CS(=O)(=O)C1)CO2` (racemic) [Example 121, 3-(5-(difluoromethoxy)-2-fluorophenyl)-1-isopropyl-N-(3-methyl-1,1-dioxidothietan-3-yl)-1,5,6,7-tetrahydropyrano[3,2-c]pyrazole-6-carboxamide], the concentration for half-maximal inhibition (IC50) was found to be 0.0215 µM.

`CC(C)n1nc(-c2cccc(OC(F)F)c2)c2c1CC(C(=O)NC1(C)CC(F)(F)C1)CO2` (racemic) [Example 124, N-(3,3-difluoro-1-methylcyclobutyl)-3-(3-(difluoromethoxy)phenyl)-1-isopropyl-1,5,6,7-tetrahydropyrano[3,2-c]pyrazole-6-carboxamide] returned a half-inhibitory concentration (IC50) of 0.0564 µM.

In the case of `CC(C)n1nc(-c2cccc(OC(F)F)c2)c2c1CC(C(=O)NC1(C)CS(=O)(=O)C1)OC2` (single isomer, unassigned) [EX-134a, 3-(3-(difluoromethoxy)phenyl)-1-isopropyl-N-(3-methyl-1,1-dioxidothietan-3-yl)-1,4,6,7-tetrahydropyrano[4,3-c]pyrazole-6-carboxamide], the half-inhibitory concentration (IC50) was greater than 10 µM.

Turning to `CC(C)n1nc(-c2cccc(OC(F)F)c2)c2c1CC(C(=O)NC1(C)CS(=O)(=O)C1)OC2` (single isomer, unassigned) [EX-134b, 3-(3-(difluoromethoxy)phenyl)-1-isopropyl-N-(3-methyl-1,1-dioxidothietan-3-yl)-1,4,6,7-tetrahydropyrano[4,3-c]pyrazole-6-carboxamide], the 50% inhibitory concentration (IC50) amounted to 7.61 µM.

Compound `C[C@]1(NC(=O)[C@H]2CCc3c(-c4ccccc4Cl)nn(-c4ccc(F)cc4)c3C2)CCS(=O)(=O)C1` (single isomer, unassigned) [Example 1a] yielded an IC50 of 3.9 µM.

As to `C[C@]1(NC(=O)[C@@H]2CCc3c(-c4ccccc4Cl)nn(-c4ccc(F)cc4)c3C2)CCS(=O)(=O)C1` (single isomer, unassigned) [Example 1b], the half-inhibitory concentration (IC50) is 0.0337 µM.

In the case of `O=C(NC1(CO)CCC(F)(F)C1)[C@@H]1CCc2c(-c3cccc(OC(F)F)c3)nn(-c3ccc(F)cn3)c2C1` (single isomer, unassigned) [Example 8a], half-maximal inhibition (IC50) was put at 0.005 µM.

`O=C(NC1(CO)CCC(F)(F)C1)[C@@H]1CCc2c(-c3cccc(OC(F)F)c3)nn(-c3ccc(F)cn3)c2C1` (single isomer, unassigned) [Example 8b] registered an IC50 of 0.035 µM.

`N#CC1(NC(=O)[C@@H]2CCc3c(-c4cncc(OC(F)F)c4)nn(-c4ccc(F)cn4)c3C2)CCOC1` (single isomer, unassigned) [Example 15a]: the IC50 was 0.0174 µM.

In turn, `N#CC1(NC(=O)[C@@H]2CCc3c(-c4cncc(OC(F)F)c4)nn(-c4ccc(F)cn4)c3C2)CCOC1` (single isomer, unassigned) [Example 15b] returned an IC50 of 0.236 µM.

In turn, `CC(C(F)F)n1nc(-c2cc(OC(F)F)ccc2F)c2c1C[C@H](C(=O)NC1(C)CS(=O)(=O)C1)CC2` (single isomer, unassigned) [Example 48a] gave an IC50 of 0.0903 µM.

Compound `CC(C(F)F)n1nc(-c2cc(OC(F)F)ccc2F)c2c1C[C@H](C(=O)NC1(C)CS(=O)(=O)C1)CC2` (single isomer, unassigned) [Example 48b] had a half-maximal inhibitory concentration (IC50) of 0.0198 µM.

The compound `CC(C(F)F)n1nc(-c2cc(OC(F)F)ccc2F)c2c1C[C@H](C(=O)NC1(C)CCS(=O)(=O)CC1)CC2` (single isomer, unassigned) [Example 49a] came in with an IC50 of 0.0321 µM.

In turn, `CC(C(F)F)n1nc(-c2cc(OC(F)F)ccc2F)c2c1C[C@H](C(=O)NC1(C)CCS(=O)(=O)CC1)CC2` (single isomer, unassigned) [Example 49b] registered an IC50 of 0.0006 µM.

`CCOc1cc(-c2nn(C(C)C(F)(F)F)c3c2CC[C@@H](C(=O)NC2(C)CCS(=O)(=O)CC2)C3)c(F)cn1` (single isomer, unassigned) [Example 53a] gave a half-inhibitory concentration (IC50) of 0.162 µM.

The compound `CCOc1cc(-c2nn(C(C)C(F)(F)F)c3c2CC[C@@H](C(=O)NC2(C)CCS(=O)(=O)CC2)C3)c(F)cn1` (single isomer, unassigned) [Example 53b] displayed a 50% inhibitory concentration (IC50) of 0.0103 µM.

As to `CC(C1CC1)n1nc(-c2cc(OC(F)F)ccc2F)c2c1C[C@H](C(=O)NC1(C)CS(=O)(=O)C1)CC2` (single isomer, unassigned) [Example 58a], the midpoint of inhibition, the IC50, lay at 0.0234 µM.

For `CC(C1CC1)n1nc(-c2cc(OC(F)F)ccc2F)c2c1C[C@H](C(=O)NC1(C)CS(=O)(=O)C1)CC2` (single isomer, unassigned) [Example 58b], the IC50 came out at 0.0025 µM.

`CC(n1nc(-c2cc(OCC(F)(F)F)ncc2F)c2c1C[C@H](C(=O)NC1(C)CCS(=O)(=O)CC1)CC2)C(C)(C)O` (single isomer, unassigned) [Example 107a] gave an IC50 of 0.0039 µM.

The compound `CC(n1nc(-c2cc(OCC(F)(F)F)ncc2F)c2c1C[C@H](C(=O)NC1(C)CCS(=O)(=O)CC1)CC2)C(C)(C)O` (single isomer, unassigned) [Example 107b] yielded an IC50 of 0.0054 µM.

The compound `CCOc1cc(-c2nn(C(C)C(C)(C)O)c3c2CC[C@@H](C(=O)N[C@@]2(C)CCS(=O)(=O)C2)C3)c(F)cn1` (single isomer, unassigned) [Example 108a] came in with a half-inhibitory concentration (IC50) of 0.0441 µM.

`CCOc1cc(-c2nn(C(C)C(C)(C)O)c3c2CC[C@@H](C(=O)N[C@@]2(C)CCS(=O)(=O)C2)C3)c(F)cn1` (single isomer, unassigned) [Example 108b] showed a half-maximal inhibitory concentration (IC50) of 0.172 µM.

Compound `CCOc1cc(-c2nn(C(C)C(C)(C)O)c3c2CC[C@@H](C(=O)NC2(C)CCS(=O)(=O)CC2)C3)c(F)cn1` (single isomer, unassigned) [Example 109a] registered a concentration for half-maximal inhibition (IC50) of 0.0495 µM.

Consider `CCOc1cc(-c2nn(C(C)C(C)(C)O)c3c2CC[C@@H](C(=O)NC2(C)CCS(=O)(=O)CC2)C3)c(F)cn1` (single isomer, unassigned) [Example 109b], for which the IC50 is 0.0307 µM.

In turn, `CC(n1nc(-c2cc(OC(F)F)ccc2F)c2c1C[C@H](C(=O)NC1(C)CS(=O)(=O)C1)CC2)C(C)(C)O` (single isomer, unassigned) [Example 110a] displayed an IC50 of 0.0308 µM.

Take `CC(n1nc(-c2cc(OC(F)F)ccc2F)c2c1C[C@H](C(=O)NC1(C)CS(=O)(=O)C1)CC2)C(C)(C)O` (single isomer, unassigned) [Example 110b]: the 50% inhibitory concentration (IC50) was 0.243 µM.

Turning to `CC(n1nc(-c2cccc(OC(F)F)c2)c2c1C[C@H](C(=O)NC1(C)CCS(=O)(=O)CC1)CC2)C(C)(C)O` (single isomer, unassigned) [Example 111a], the midpoint of inhibition, the IC50, lay at 2.07 µM.

`CC(n1nc(-c2cccc(OC(F)F)c2)c2c1C[C@H](C(=O)NC1(C)CCS(=O)(=O)CC1)CC2)C(C)(C)O` (single isomer, unassigned) [Example 111b] returned a half-inhibitory concentration (IC50) of 0.23 µM.

Take `CC(n1nc(-c2cc(OCC(F)(F)F)ncc2F)c2c1C[C@H](C(=O)N[C@@]1(C)CCS(=O)(=O)C1)CC2)C(C)(C)O` (single isomer, unassigned) [Example 112a]: half-maximal inhibition (IC50) was put at 0.0113 µM.

Consider `CC(n1nc(-c2cc(OCC(F)(F)F)ncc2F)c2c1C[C@H](C(=O)N[C@@]1(C)CCS(=O)(=O)C1)CC2)C(C)(C)O` (single isomer, unassigned) [Example 112b], for which half-maximal inhibition (IC50) was put at 0.0316 µM.

Compound `CC(n1nc(-c2cc(OCC(F)(F)F)ncc2F)c2c1C[C@H](C(=O)NC1(C#N)CCS(=O)(=O)CC1)CC2)C(C)(C)O` (single isomer, unassigned) [Example 113a] displayed an IC50 of 0.0278 µM.

Compound `CC(n1nc(-c2cc(OCC(F)(F)F)ncc2F)c2c1C[C@H](C(=O)NC1(C#N)CCS(=O)(=O)CC1)CC2)C(C)(C)O` (single isomer, unassigned) [Example 113b] displayed a 50% inhibitory concentration (IC50) of 0.0703 µM.

`CC1(NC(=O)[C@@H]2CCc3c(-c4cc(OC(F)F)ccc4F)nn(C4CCCC4O)c3C2)CS(=O)(=O)C1` (single isomer, unassigned) [Example 114a] came in with a half-inhibitory concentration (IC50) of 0.0445 µM.

`CC1(NC(=O)[C@@H]2CCc3c(-c4cc(OC(F)F)ccc4F)nn(C4CCCC4O)c3C2)CS(=O)(=O)C1` (single isomer, unassigned) [Example 114b] showed a concentration for half-maximal inhibition (IC50) of 0.129 µM.

On to `CC1(NC(=O)[C@@H]2CCc3c(-c4cc(OC(F)F)ccc4F)nn(C4CCCC4O)c3C2)CS(=O)(=O)C1` (single isomer, unassigned) [Example 114c], for which it took 0.0999 µM to reach half-maximal inhibition (IC50).

Turning to `CC1(NC(=O)[C@@H]2CCc3c(-c4cc(OC(F)F)ccc4F)nn(C4CCCC4O)c3C2)CS(=O)(=O)C1` (single isomer, unassigned) [Example 114d], half-maximal inhibition (IC50) required 0.105 µM.

The record behind these values is patent US20240140938A1, “PREPARATION OF TETRAHYDROINDAZOLE DERIVATIVES AS NOVEL DIACYLGLYCERIDE O-ACYLTRANSFERASE 2 INHIBITORS” (MERCK SHARP & DOHME LLC, priority 2020, published 2024).
